Test results taken from publication PMC7062083, “Metabolite identification, tissue distribution, excretion and preclinical pharmacokinetic studies of ET-26-HCl, a new analogue of etomidate” (Royal Society Open Science, 2020).
Where two headings read alike, the source gives them in different places.

Experiments:
[1] = Excretion (urine, faeces, bile) in Sprague Dawley rats; assay type: in vivo
Description: Concentrations of ET-26-HCl and ET-26-acid in biological samples were determined by liquid chromatography–tandem mass spectrometry (LC–MS/MS) after deproteinization with methanol. The bioanalytical method for simultaneous quantification of ET-26-HCl and ET-26-acid in the different matrix was fully validated according to FDA guidelines (electronic supplementary material, figure S1 and tables S1 and S2) in our previous study. Briefly, a 100 µl sample (plasma, tissue homogenate, bile, urine and faeces suspension) were spiked with 20 µl of IS solution and vortexed for 30 s. The mixture was then processed for protein precipitation with 300 µl methanol, followed by centrifugation at 12 000 r.p.m. for 5 min. Supernatant was collected and analysed by LC–MS/MS system.
SD rats (4 male and 4 female) received 4.2 mg kg^−1 of ET-26-HCl intravenously and were housed in metabolic cages. Urine and faeces from the treated rats were collected between 0–6, 6–12, 12–24, 24–30, 30–36 and 36–48 h post-dosing. Urine volume and faeces weight were measured and recorded.
Bile fistulas of SD rats (four male and four female) were cannulated with polyethylene tube (Instech Laboratories, Inc., USA) and bile was collected at the following time-points: 0–3, 3–6, 6–9, 9–12 and 12–24 h post-dosing. The volume of the collected bile was measured and stored at −80°C until analysis.

[2] = Identification of major metabolites in liver microsomes (UPLC-Q-TOF-MS); assay type: in vitro ADME, mouse, rat, beagle dog, monkey and human; settings: 10 µM ET-26-HCl, 1 mg ml^−1 liver microsomes, NADPH, 1 h
Description: The major metabolites of ET-26-HCl in liver microsomes from mouse, rat, beagle dog, monkey and human were determined by the UPLC-Q-TOF-MS system.
Reaction mixture containing 10 µM ET-26-HCl, […] MgCl2 and 1 mg ml^−1 liver microsomes in Tris-HCl phosphate buffer (pH 7.4) was pre-incubated for 6 min at 37°C, followed by the addition of NADPH. After incubation for 1 h, methanol was added to stop the reaction. Samples were centrifuged at 11 000 r.p.m. for 5 min; supernatants were collected and air dried at 40°C. Residues were dissolved in 100 µl acetonitrile/water (1:1, v/v) and analysed by the UPLC-Q-TOF-MS.
The UPLC-Q-OF-MS system was equipped with a Waters Synapt G2-Si quadrupole time-of-flight mass spectrometer (Q-TOF-MS), an ESI source and an ACQUITY UPLC H-CLASS liquid chromatography system. The chromatographic separations were achieved on an ACQUITY UPLC BEH C18 column (2.1 × 100 mm, i.d. 1.7 µm, Waters, USA) kept at 45°C and a flow rate of 0.4 ml min^−1. The mobile phase consisted of 5 mM ammonium acetate with 0.1% formic acid (A) and acetonitrile with 0.1% formic acid (B). The optimized gradient elution programme followed was 0 min to 2.1 min, A/B (19/1, v/v); 2.1 min to 7.3 min, A/B (1/4, v/v); 7.3 min to 8.0 min, A/B (1/9, v/v); and 8.0 min to 10 min, A/B (19/1, v/v). The injection volume was 5 µl. The mass experiment was operated in positive ion modes under the following parameters: turbo spray temperature, 120°C; ion spray voltage, 3.0 kV. Nitrogen was used as the nebulizer and the auxiliary gas; meanwhile, the nebulizer gas was set to 650 l h^−1 and kept at 350°C. The collision energy was set at 5–10 V and the collision energy spread was 4–6 V. TOF-MS was scanned with the mass range of m/z 50–600 with 200 ms accumulation time. A 400 ng ml^−1 leu-enkephalin (m/z 556.2771) was selected as an external standard for mass–charge ratio correction at a flow rate of 5 µl min^−1.

[3] = Metabolic stability in human liver microsomes; assay type: in vitro ADME
Description: Samples were analysed by LC–MS/MS as mentioned above.2.1 CLint, in vitro=0.693/t1/2/Cprotein, 2.2 CLint, in vivo=CLint, in vitro×Houston×LW/1000 2.3 andCLhep in vivo=HBF × fu ×CLint, in vivo/HBF + fu ×CLint, in vivo. Where Cprotein is microsomal protein concentration (mg ml^−1); Houston is Houston factor (45 mg of microsomal protein g^−1 liver); LW is liver weight (g) (per species); HBF is hepatic blood flow (ml min^−1) (per species); fu (two places) and later is unbound fraction (fu = 1 − %protein binding).

[4] = set-up: method as in earlier work; settings: rat; ref results of the drug effect in the early stage of the cooperation laboratory; cited from earlier work
[5] = rats, i.v., cited from earlier work
[6] = Plasma protein binding, equilibrium dialysis, monkey plasma; assay type: in vitro ADME
Description: The PPB of ET-26-HCl in mouse, rat, beagle dog, monkey and human plasma was determined according to the equilibrium dialysis method. In brief, 1 ml of control plasma samples in dialysis bag was incubated in 10 ml of PBS containing ET-26-HCl at a final concentration of 2.21 × 10^2, 1.77 × 10^3 and 3.54 × 10^3 […] at 4°C with an equilibrium time of 9 h to reach the mass balance binding condition. A 100 µl aliquots of the PBS buffer and the plasma in the dialysis bag were transferred to 2 ml EP tubes and diluted to 995 µl with PBS and analysed on the LC–MS/MS system. The PPB (fppb) was calculated as follows: fppb=Din−Dout/Din×100% , where Din is the plasma drug concentration in the dialysis bag and Dout is the dialysate drug concentration.

[7] = i.v. ET-26-HCl 4.2 mg kg^−1, collected to 48 h

For COCCOC(=O)c1cncn1[C@H](C)c1ccccc1.Cl [ET-26-HCl, (R)-2-methoxyethyl1-(1-phenylethyl)-1H-imidazole-5-carboxylate hydrochloride], the “accumulative excretion through bile” value ([1]; i.v. ET-26-HCl 4.2 mg kg^−1, bile collected to 24 h) was 0.619%, the “accumulative excretion through faeces” value [1, 7] was 0.076% and the “accumulative excretion through urine” value [1, 7] was 11.97%. The “source (liver microsomes) in which detected” value [2] was “human and dog”, the “source (liver microsomes) in which detected” value ([2]; listed as M0) was “human, dog” and the “CLint, in vitro” value ([3]; human liver microsomes) was 50.0 ml min g^−1 protein. For the same molecule, the “metabolic stability (in words)” value ([3]; human liver microsomes) was “relatively stable”, the “CLint, in vitro” value ([3]; human liver microsomes, Cprotein 0.33 mg ml^−1) was 50.0 ± 1.9 ml min^−1 g^−1 protein and the “extrapolated CLhep in vivo” value ([3]; human, from liver microsomes) was 1077 ± 11.8 mL/min. The “extrapolated CLint, in vivo” value ([3]; human, from liver microsomes) was 3823 ± 146.4 mL/min, the half-life ([3]; pH 7.4, human liver microsomes, Cprotein 0.33 mg ml^−1) was 42 ± 1.7 min and the ED50 [4] was 2.1 mg/kg. For the same molecule, the AUC0-t ([5]; 2.1 mg/kg) was 28.47 ± 3.41 mg·min/L, the CL ([5]; 2.1 mg/kg) was 58 ± 11 mL/min/kg and the Cmax ([5]; 2.1 mg/kg) was 1820 ± 200 ng/mL. For the same molecule, the Vd ([5]; 2.1 mg/kg) was 5.37 ± 0.72 L/kg, the t1/2 ([5]; 2.1 mg/kg) was 65.4 ± 12.6 min and the λ ([5]; 2.1 mg/kg) was 0.66 ± 0.24 h⁻¹. For the same molecule, the AUC0-t ([5]; 4.2 mg/kg) was 41.70 ± 3.61 mg·min/L, the CL ([5]; 4.2 mg/kg) was 92 ± 8 mL/min/kg and the Cmax ([5]; 4.2 mg/kg) was 3310 ± 210 ng/mL. For the same molecule, the Vd ([5]; 4.2 mg/kg) was 5.24 ± 1.33 L/kg, the t1/2 ([5]; 4.2 mg/kg) was 39.6 ± 10.2 min and the λ ([5]; 4.2 mg/kg) was 1.20 ± 0.36 h⁻¹. The AUC0-t ([5]; 8.4 mg/kg) was 110.92 ± 9.04 mg·min/L, the CL ([5]; 8.4 mg/kg) was 64 ± 5 mL/min/kg and the Cmax ([5]; 8.4 mg/kg) was 7010 ± 360 ng/mL. For the same molecule, the Vd ([5]; 8.4 mg/kg) was 4.67 ± 0.99 L/kg, the t1/2 ([5]; 8.4 mg/kg) was 51 ± 8.4 min and the λ ([5]; 8.4 mg/kg) was 0.78 ± 0.12 h⁻¹. The “time until cleared after intravenous administration” value [5] was no more than 4 h, the fraction unbound at 9 h, 654 ng ml^−1 ([6]; measured concentration 654 ng ml^−1) was 0.387 and the fraction unbound at 9 h ([6]; measured concentration 2.62 × 10^3 ng ml^−1, read-out: protein binding (converted)) was 0.375 ± 0.0269. It also gave a fraction unbound at 9 h ([6]; measured concentration 5.23 × 10^3 ng ml^−1, read-out: protein binding (converted)) of 0.357 and a fraction unbound at 9 h ([6]; overall over the three concentrations, read-out: plasma protein binding rate (converted)) of 0.373.
